Data from patent publication US20130267532A1, “CYCLIC AMIDE COMPOUNDS AND THEIR USE IN THE TREATMENT OF DISEASE” (priority 2010, published 2013).

How the values were obtained:
PAMPA analysis = format: in vitro ADME; conditions: pH 7.4, GIT Lipid-0, incubation for 4 h, read-out: Pe pH 7.4
Method: Donor: System Solution Concentrate (pION inc.) (25 mL) and DMSO (50 mL) (f.c. 5%) was diluted to 1 L with milliQ water, adjusted to pH5.0 or 7.4 with NaOH. Compound solution (5 μL, 10 mM solution in DMSO) was added to 1 mL of system solution prepared as above, and filtered.
Acceptor: Acceptor Sink Buffer(pION inc.)
Compound solution (200 μL) was added to Donor plate. GIT Lipid-0 (pION inc.) […] was added to Acceptor plate. Acceptor Sink Buffer (200 μL) was added to Acceptor plate. Donor and Acceptor plates were superposed. After incubation for 4 h under humidified conditions, the concentration of test compound in both solutions of Acceptor and Donor plates were measured by UV plate reader (190-500 nm). Permeation coefficient Pe(10^−6 cm/sec) was calculated by the equation shown below.
[formula] ra=(VD/VA)Pe^(A→D)/Pe^(D→A)=rVPe^(A→D)/Pe^(D→A)
rV=(VD/VA) • VD=volume of donor well • VA=volume of acceptor well • t=permeation time • τ^SS=steady state time • R=retention • CD and CA=concentration in donor and acceptor well The results are shown in Table 4.

Recombinant human TLR7 = target: T1, Recombinant human TLR7 (Homo sapiens, UniProt Q9NYK1); assay: Human TLR7 assay (SEAP reporter in HEK293 cells); format: cell-based; conditions: TLR7 activation, SEAP induction, overnight incubation at 37° C., 0.1% DMSO
T1 construct: expressed in transfected cells; host or cells: HEK293 cell line stably expressing the pNiFty2-SEAP reporter plasmid
T1 sequence (Q9NYK1 27-1049): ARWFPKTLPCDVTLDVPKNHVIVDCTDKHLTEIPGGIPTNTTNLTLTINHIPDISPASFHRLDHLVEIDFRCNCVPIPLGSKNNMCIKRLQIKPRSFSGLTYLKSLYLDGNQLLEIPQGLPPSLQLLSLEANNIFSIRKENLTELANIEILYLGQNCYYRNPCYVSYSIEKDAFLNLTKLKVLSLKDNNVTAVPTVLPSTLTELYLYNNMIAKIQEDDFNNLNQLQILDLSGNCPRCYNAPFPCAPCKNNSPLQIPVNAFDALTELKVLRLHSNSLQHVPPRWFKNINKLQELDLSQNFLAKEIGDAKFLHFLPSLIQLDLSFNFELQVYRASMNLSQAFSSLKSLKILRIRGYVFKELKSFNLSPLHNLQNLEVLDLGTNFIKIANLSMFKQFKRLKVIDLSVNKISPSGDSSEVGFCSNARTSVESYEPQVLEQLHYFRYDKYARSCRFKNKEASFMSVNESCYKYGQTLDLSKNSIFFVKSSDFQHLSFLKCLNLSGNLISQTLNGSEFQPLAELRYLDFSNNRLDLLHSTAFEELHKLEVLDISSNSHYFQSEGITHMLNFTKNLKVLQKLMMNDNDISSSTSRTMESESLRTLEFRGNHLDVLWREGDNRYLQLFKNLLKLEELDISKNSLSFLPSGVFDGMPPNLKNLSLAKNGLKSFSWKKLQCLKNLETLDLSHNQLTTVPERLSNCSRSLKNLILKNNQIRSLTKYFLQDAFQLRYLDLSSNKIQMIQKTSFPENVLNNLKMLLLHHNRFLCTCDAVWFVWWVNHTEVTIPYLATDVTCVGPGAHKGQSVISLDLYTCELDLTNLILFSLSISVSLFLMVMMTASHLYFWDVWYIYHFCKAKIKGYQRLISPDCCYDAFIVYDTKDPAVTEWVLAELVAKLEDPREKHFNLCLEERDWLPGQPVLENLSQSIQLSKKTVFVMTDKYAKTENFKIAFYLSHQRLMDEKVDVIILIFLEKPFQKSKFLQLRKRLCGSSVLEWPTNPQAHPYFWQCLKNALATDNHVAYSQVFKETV
Method: The ability of compounds to activate TLR7 in vitro was assessed using the human TLR7 assay described below.
Recombinant human TLR7 was stably expressed in a HEK293 cell line already stably expressing the pNiFty2-SEAP reporter plasmid; integration of the reporter gene was maintained by selection with the antibiotic zeocin. The most common variant sequence of human TLR7 (represented by the EMBL sequence AF240467) was cloned into the mammalian cell expression vector pUNO and transfected into this reporter cell-line. Transfectants with stable expression were selected using the antibiotic blasticidin. In this reporter cell-line, expression of secreted alkaline phosphatase (SEAP) is controlled by an NF-κB/ELAM-1 composite promoter comprising five NF-κB sites combined with the proximal ELAM-1 promoter. TLR signaling leads to the translocation of NF-κB and activation of the promoter results in expression of the SEAP gene. TLR7-specific activation was assessed by determining the level of SEAP produced following overnight incubation of the cells at 37° C. with the standard compound in the presence of 0.1% (v/v) dimethylsulfoxide (DMSO). Concentration dependent induction of SEAP production by compounds was expressed as the concentration of compound which produced half of the maximal level of SEAP induction for that compound (EC50).

hERG potassium channel = target: T2, hERG potassium channel (Homo sapiens, UniProt Q12809); assay: hERG analysis Method 1 (QPatch HT automated patch clamp, CHO cells); format: cell-based; conditions: hERG-expressing CHO cells, tail current, room temperature (22±2° C.), 4 cumulative concentrations
T2 construct: expressed in transfected cells; host or cells: Chinese hamster ovary K1 (CHO) cells stably expressing hERG
T2 sequence (Q12809 whole entry): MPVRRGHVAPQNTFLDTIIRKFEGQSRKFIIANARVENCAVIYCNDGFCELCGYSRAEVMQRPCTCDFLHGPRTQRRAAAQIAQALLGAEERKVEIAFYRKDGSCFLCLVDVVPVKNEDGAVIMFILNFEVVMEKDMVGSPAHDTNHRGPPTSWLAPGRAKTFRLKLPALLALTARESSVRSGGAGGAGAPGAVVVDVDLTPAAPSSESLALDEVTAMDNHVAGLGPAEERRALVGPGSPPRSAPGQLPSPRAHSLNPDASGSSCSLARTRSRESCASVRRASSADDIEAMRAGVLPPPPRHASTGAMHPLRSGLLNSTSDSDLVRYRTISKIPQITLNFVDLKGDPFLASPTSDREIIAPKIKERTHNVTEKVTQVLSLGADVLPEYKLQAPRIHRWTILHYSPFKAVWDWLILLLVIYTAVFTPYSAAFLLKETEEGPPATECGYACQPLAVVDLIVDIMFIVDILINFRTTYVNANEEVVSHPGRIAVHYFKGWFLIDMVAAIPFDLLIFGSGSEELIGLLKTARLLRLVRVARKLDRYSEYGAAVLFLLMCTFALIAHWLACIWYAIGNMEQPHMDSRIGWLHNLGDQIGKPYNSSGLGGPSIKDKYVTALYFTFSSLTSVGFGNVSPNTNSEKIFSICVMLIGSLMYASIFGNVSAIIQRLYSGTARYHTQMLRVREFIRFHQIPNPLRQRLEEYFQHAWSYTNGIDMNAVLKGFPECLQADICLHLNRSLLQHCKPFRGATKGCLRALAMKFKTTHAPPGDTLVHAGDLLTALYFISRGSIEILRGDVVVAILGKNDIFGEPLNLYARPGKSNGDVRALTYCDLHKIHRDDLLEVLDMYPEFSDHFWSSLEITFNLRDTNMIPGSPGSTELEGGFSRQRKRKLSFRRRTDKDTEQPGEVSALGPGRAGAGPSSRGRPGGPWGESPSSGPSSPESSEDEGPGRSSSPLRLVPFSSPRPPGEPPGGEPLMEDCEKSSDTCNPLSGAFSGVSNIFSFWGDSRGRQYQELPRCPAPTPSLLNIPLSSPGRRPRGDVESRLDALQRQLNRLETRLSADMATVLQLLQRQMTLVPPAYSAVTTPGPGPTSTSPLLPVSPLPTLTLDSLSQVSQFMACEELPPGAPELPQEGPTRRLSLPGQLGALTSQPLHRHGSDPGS
Method: hERG (Human Ether-a-go-go Related Gene) Analysis—Method 1
The hERG potassium current is measured in a hERG-stably-expressing Chinese hamster ovary K1 (CHO) cells. The experiments were performed using an automated planar patch-clamp system QPatch HT (Sophion Bioscience A/S). The application of pressure for forming gigaseals and whole-cell patch clamp configuration were established using the QPatch assay software. Patch-clamp experiments were performed in voltage-clamp mode and whole-cell currents were recorded from individual cells. The following stimulation protocol was applied to investigate the effects of compounds on hERG potassium channel.: The membrane potential was held at −80 mV and repetitively (every 15 s) depolarized to +20 mV for 5 s after the pulse to −50 mV for 20 ms served to define the baseline, followed by repolarizing step to −50 mV for 5 s to evaluate of the tail current amplitude. Experiments were conducted at room temperature (22±2° C.).
Effects of compounds were determined from cumulative applications of increasing 4 concentrations and calculated as percent of blocked current. The data points were fitted with Hill equation to calculate half-maximal inhibition concentrations.
The test solution includes:
Extracellular solution (mM): 2 mM of CaCl2, 1 mM of MgCl2, 10 mM of HEPES, 4 mM of KCl, 145 mM of NaCl, and 10 mM of glucose; and
Intracellular solution (mM): 5.4 mM of CaCl2, 1.8 mM of MgCl2, 10 mM of HEPES, 31 mM of KOH, 10 mM of EGTA, 120 mM of KCl, and 4 mM of ATP.

## CCCCNc1nc(N)nc(C)c1Cc1ccc(N2CCN(C)CC2=O)cc1OC [Example 1, 1-(4-{[2-Amino-4-(butylamino)-6-methylpyrimidin-5-yl]methyl}-3-methoxyphenyl)-4-methylpiperazin-2-one]
PAMPA analysis
  Papp at 4 h, 50 µM: 35.6 ×10⁻⁶ cm/s
Recombinant human TLR7
  EC50: 63.1 nM
hERG potassium channel
  IC50: 2900 nM

## CCCCCNc1nc(N)nc(C)c1Cc1ccc(N2CCN(C)CC2=O)cc1OC [Example 2, 1-(4-{[2-Amino-4-methyl-6-(pentylamino)pyrimidin-5-yl]methyl}-3-methoxyphenyl)-4-methylpiperazin-2-one]
PAMPA analysis
  Papp at 4 h, 50 µM: 44.2 ×10⁻⁶ cm/s
Recombinant human TLR7
  EC50: 63.1 nM
hERG potassium channel
  IC50: 800 nM

## CCC[C@@H](CCO)Nc1nc(N)nc(C)c1Cc1ccc(N2CCN(C)CC2=O)cc1OC [Example 3, (S)-1-(4-{[2-Amino-4-(1-hydroxyhexan-3-ylamino)-6-methylpyrimidin-5-yl]methyl}-3-methoxyphenyl)-4-methylpiperazin-2-one]
PAMPA analysis
  Papp at 4 h, 50 µM: 23.7 ×10⁻⁶ cm/s
Recombinant human TLR7
  EC50: 25.1 nM
hERG potassium channel
  IC50: > 10000 nM

## CCC[C@@H](CO)Nc1nc(N)nc(C)c1Cc1ccc(N2CCN(C)CC2=O)cc1OC [Example 4, (S)-1-(4-{[2-Amino-4-(1-hydroxypentan-2-ylamino)-6-methylpyrimidin-5-yl]methyl}-3-methoxyphenyl)-4-methylpiperazin-2-one]
PAMPA analysis
  Papp at 4 h, 50 µM: 1.3 ×10⁻⁶ cm/s
Recombinant human TLR7
  EC50: 200 nM
hERG potassium channel
  IC50: > 10000 nM

## CCC[C@@H](CCO)Nc1nc(N)nc(C)c1Cc1ccc(N2CCNCC2=O)cc1OC [Example 5, (S)-1-(4-{[2-Amino-4-(1-hydroxyhexan-3-ylamino)-6-methylpyrimidin-5-yl]methyl}-3-methoxyphenyl)piperazin-2-one]
PAMPA analysis
  Papp at 4 h, 50 µM: < 0.1 ×10⁻⁶ cm/s
Recombinant human TLR7
  EC50: 126 nM
hERG potassium channel
  IC50: > 10000 nM
